Reference: ChEMBL document CHEMBL3813674 (Medchemcomm, 2016)
Converted amounts (≈) assume the structure as drawn.

What was measured:
Format in all cases: physicochemical
[1] = Solubility of the compound in ChCl-G solvent at 37 degC measured after 24 hrs by HPLC analysis
[2] = Solubility of the compound in ChCl-LA2 solvent at 37 degC measured after 24 hrs by HPLC analysis
[3] = Solubility of the compound in EAC-LA2 solvent at 37 degC measured after 24 hrs by HPLC analysis
[4] = Solubility of the compound in ChCl-P solvent at HBA:HBD 1:3 molar ratio and 37 degC measured after 24 hrs by HPLC analysis
[5] = Solubility of the compound in BE-LA1 solvent at 37 degC measured after 24 hrs by HPLC analysis
[6] = Solubility of the compound in ChCl-MA1 solvent at 37 degC measured after 24 hrs by HPLC analysis
[7] = Solubility of the compound in levulinic acid at 37 degC measured after 24 hrs by HPLC analysis
[8] = Solubility of the compound in ChCl-GA2 solvent at 37 degC measured after 24 hrs by HPLC analysis
[9] = Solubility of the compound in TPAB-P solvent at 37 degC measured after 24 hrs by HPLC analysis
[10] = Solubility of the compound in ChCl-LA1 solvent at 37 degC measured after 24 hrs by HPLC analysis
[11] = Solubility of the compound in EAC-P solvent at 37 degC measured after 24 hrs by HPLC analysis
[12] = Solubility of the compound in 1,2-propanediol at 37 degC measured after 24 hrs by HPLC analysis
[13] = Solubility of the compound in EAC-EG solvent at 37 degC measured after 24 hrs by HPLC analysis
[14] = Solubility of the compound in ChBt-LA1 solvent at 37 degC measured after 24 hrs by HPLC analysis
[15] = Solubility of the compound in TPAB-LA1 solvent at 37 degC measured after 24 hrs by HPLC analysis
[16] = Solubility of the compound in ChCl-GA1 solvent at 37 degC measured after 24 hrs by HPLC analysis
[17] = Solubility of the compound in ChCl-LA1 solvent at HBA:HBD 1:5 molar ratio and 37 degC measured after 24 hrs by HPLC analysis
[18] = Solubility of the compound in ChCl-OA solvent at 37 degC measured after 24 hrs by HPLC analysis
[19] = Solubility of the compound in water at 37 degC measured after 24 hrs by HPLC analysis; conditions: for solubility at 24 h: water
[20] = Solubility of the compound in ChCl-LA1 solvent at HBA:HBD 1:2 molar ratio and 37 degC measured after 24 hrs by HPLC analysis
[21] = Solubility of the compound in ChCl-P solvent at HBA:HBD 1:5 molar ratio and 37 degC measured after 24 hrs by HPLC analysis
[22] = Solubility of the compound in ChCl-U solvent at 37 degC measured after 24 hrs by HPLC analysis
[23] = Solubility of the compound in ChCl-LA1 solvent at HBA:HBD 1:3 molar ratio and 37 degC measured after 24 hrs by HPLC analysis
[24] = Solubility of the compound in ChCl-EG solvent at 37 degC measured after 24 hrs by HPLC analysis
[25] = Solubility of the compound in ChCl-P solvent at HBA:HBD 1:4 molar ratio and 37 degC measured after 24 hrs by HPLC analysis
[26] = Solubility of the compound in ChCl-LA1 solvent at HBA:HBD 1:4 molar ratio and 37 degC measured after 24 hrs by HPLC analysis
[27] = Solubility of the compound in ChCl-P solvent at HBA:HBD 1:2 molar ratio and 37 degC measured after 24 hrs by HPLC analysis
[28] = Half life of compound in water at 2.5 mg by HPLC method
[29] = Half life of the compound at optimal pH
[30] = Half life of compound in ChCl-P solvent at 2.5 mg by HPLC method
[31] = Ratio of half life of compound in ChCl-P solvent to half life of compound in water; conditions: buffer

Compound `CC(=O)Nc1ccc(O)cc1` [ACETAMINOPHEN] has a solubility [1] of 140.3 mg/mL (≈ 928 mM), a solubility [2] of 254 mg/mL (≈ 1680 mM) and a solubility [3] of 141.2 mg/mL (≈ 934 mM). It also gave a solubility [4] of 324 mg/mL, a solubility [5] of 212.1 mg/mL (≈ 1400 mM) and a solubility [6] of 266.3 mg/mL (≈ 1760 mM). For the same compound, the solubility [7] was 144.5 mg/mL (≈ 956 mM), the solubility [8] was 224.8 mg/mL (≈ 1490 mM) and the solubility [9] was 352.7 mg/mL (≈ 2330 mM). For the same compound, the solubility [10] was 279 mg/mL (≈ 1850 mM), the solubility [11] was 188.6 mg/mL (≈ 1250 mM) and the solubility [12] was 235.1 mg/mL (≈ 1560 mM). For the same compound, the solubility [13] was 173.9 mg/mL (≈ 1150 mM), the solubility [14] was 89.07 mg/mL (≈ 589 mM) and the solubility [15] was 316.5 mg/mL (≈ 2090 mM). For the same compound, the solubility [16] was 238.1 mg/mL (≈ 1580 mM), the solubility [17] was 199.8 mg/mL and the solubility [18] was 186.7 mg/mL (≈ 1240 mM). It also gave a solubility at 24 h [19] of 19.9 mg/mL (≈ 132 mM), a solubility [20] of 279 mg/mL and a solubility [21] of 246.2 mg/mL. It also gave a solubility [22] of 169.7 mg/mL (≈ 1120 mM), a solubility [23] of 217.4 mg/mL and a solubility [24] of 287 mg/mL (≈ 1900 mM). The solubility [25] was 267.9 mg/mL, the solubility [26] was 208.4 mg/mL and the solubility [27] was 324 mg/mL.

In the case of `CC(=O)Oc1ccccc1C(=O)O` [ASPIRIN], the solubility [1] is reported as 42.48 mg/mL (≈ 236 mM), the solubility [2] is reported as 91.3 mg/mL (≈ 507 mM) and the solubility [3] is reported as 44.57 mg/mL (≈ 247 mM). For the same compound, the solubility [4] was 184.6 mg/mL, the solubility [5] was 149.8 mg/mL (≈ 831 mM) and the solubility [6] was 126.3 mg/mL (≈ 701 mM). For the same compound, the solubility [7] was 95.63 mg/mL (≈ 531 mM), the solubility [8] was 67.43 mg/mL (≈ 374 mM) and the solubility [9] was 220.2 mg/mL (≈ 1220 mM). For the same compound, the solubility [10] was 135 mg/mL (≈ 749 mM), the half-life [28] was 128 min and the solubility [11] was 82.18 mg/mL (≈ 456 mM). For the same compound, the solubility [12] was 134.3 mg/mL (≈ 745 mM), the solubility [13] was 56.84 mg/mL (≈ 315 mM) and the solubility [14] was 37.06 mg/mL (≈ 206 mM). For the same compound, the solubility [15] was 163.7 mg/mL (≈ 909 mM), the solubility [16] was 76.28 mg/mL (≈ 423 mM) and the solubility [17] was 104.4 mg/mL. The half-life [29] was under 14 days, the solubility [18] was 86.32 mg/mL (≈ 479 mM) and the solubility ([19]; buffer, 24 h) was 3.3 mg/mL (≈ 18.3 mM). It also gave a half-life [30] of 1050 min, a solubility [20] of 135 mg/mL and a Ratio [31] of 8.2. For the same compound, the solubility [21] was 168.7 mg/mL, the solubility [22] was 147.9 mg/mL (≈ 821 mM) and the solubility [23] was 113.1 mg/mL. The solubility [24] was 139 mg/mL (≈ 772 mM), the solubility [25] was 179.2 mg/mL and the solubility [26] was 109.9 mg/mL. The solubility [27] was 202 mg/mL.

`CC(C)Cc1ccc(C(C)C(=O)O)cc1` (stereo unspecified) [IBUPROFEN] showed a solubility [1] of 3.82 mg/mL (≈ 18.5 mM), a solubility [2] of 17.95 mg/mL (≈ 87 mM) and a solubility [3] of 20.67 mg/mL (≈ 100 mM). The solubility [4] was 191.7 mg/mL, the solubility [5] was 280.2 mg/mL (≈ 1360 mM) and the solubility [6] was 25.87 mg/mL (≈ 125 mM). The solubility [7] was 159.4 mg/mL (≈ 773 mM), the solubility [8] was 9.49 mg/mL (≈ 46 mM) and the solubility [9] was 383.4 mg/mL (≈ 1860 mM). For the same compound, the solubility [10] was 78.69 mg/mL (≈ 381 mM), the solubility [11] was 141.6 mg/mL (≈ 686 mM) and the solubility [12] was 380 mg/mL (≈ 1840 mM). For the same compound, the solubility [13] was 21.42 mg/mL (≈ 104 mM), the solubility [14] was 35.05 mg/mL (≈ 170 mM) and the solubility [15] was 194.8 mg/mL (≈ 944 mM). The solubility [16] was 25.38 mg/mL (≈ 123 mM), the solubility [18] was 31.51 mg/mL (≈ 153 mM) and the solubility at 24 h [19] was 0.07 mg/mL (≈ 0.339 mM). The solubility [21] was 267.6 mg/mL, the solubility [22] was 4.5 mg/mL (≈ 21.8 mM) and the solubility [24] was 24.29 mg/mL (≈ 118 mM). It also gave a solubility [25] of 226.1 mg/mL and a solubility [27] of 183.3 mg/mL.
